This assay has as its system spores of Bacillus subtilis. The class given is cell-based. The procedure:
The efficacy of the inventive process is assessed using a time kill suspension test method and spores of Bacillus subtilis.
Peracetic acid (PAA) and hydrogen peroxide (H2O2) are prepared as concentrated stocks (3× concentrate). Each test contains 100 μl of the PAA concentrate and 100 μl of the H2O2 concentrate. Controls containing only PAA or H2O2 are also prepared. These contain 100 μl of either the PAA concentrate or H2O2 concentrate and 100 μl of de-ionized water. To each test, 100 μl of spores are added while starting the timer concurrently. The samples are mixed thoroughly. The temperature of the samples is room temperature. At the appropriate contact times, 10 μl of the appropriate test sample are placed into 90 μl of the appropriate neutralizing solution, mixed thoroughly and incubated for at least 10 minutes. Ten fold serial dilutions are prepared through 10^−6 and plated using the drop counting method. The plates are then incubated aerobically at 37° C. for 1-2 days. Following incubation, colony forming units (CFU) are counted using standard plate count techniques and converted to log 10 values for analysis.

Read-outs that look alike come from different tables or passages of the source.

`OO` [H2O2, hydrogen peroxide]: the “Time (min) to achieve 4 log reduction” value is, setting by setting: (H2O2 0.10% by weight, PAA 0.00% (H2O2 alone), extrapolated from experimental data) 2305.13 min; (H2O2 0.20% by weight, PAA 0.00% (H2O2 alone), extrapolated from experimental data) 1213.99 min; (H2O2 0.40% by weight, PAA 0.00% (H2O2 alone), extrapolated from experimental data) 639.34 min; (H2O2 0.80% by weight, PAA 0.00% (H2O2 alone)) 343.04 min; (H2O2 1.60% by weight, PAA 0.00% (H2O2 alone)) 168.96 min; (H2O2 3.20% by weight, PAA 0.00% (H2O2 alone)) 97.28 min. Also, the “Time (min) to achieve 4 log reduction” value (H2O2 6.40% by weight, PAA 0.00% (H2O2 alone), room temperature) is on record as 48.64 min.

Regarding `CC(=O)OO` [PAA, Peracetic acid], the “Time (min) to achieve 4 log reduction” value (PAA 0.005% by weight, H2O2 0.00% (PAA alone), extrapolated from data for PAA 0.08, 0.16 and 0.32%) is given as 711625 min; the “Time (min) to achieve 4 log reduction” value (PAA 0.01% by weight, H2O2 0.00% (PAA alone), extrapolated from data for PAA 0.08, 0.16 and 0.32%) is 67744.68 min; the “Time (min) to achieve 4 log reduction” value (PAA 0.02% by weight, H2O2 0.00% (PAA alone), extrapolated from data for PAA 0.08, 0.16 and 0.32%) is recorded as 6449.101 min; the “Time (min) to achieve 4 log reduction” value (PAA 0.04% by weight, H2O2 0.00% (PAA alone), extrapolated from data for PAA 0.08, 0.16 and 0.32%) is 613.9362 min; the “Time (min) to achieve 4 log reduction” value (PAA 0.08% by weight, H2O2 0.00% (PAA alone)) was determined as 70.40 min; the “Time (min) to achieve 4 log reduction” value (PAA 0.16% by weight, H2O2 0.00% (PAA alone)) was 4.64 min.
